# From publication PMC9356275, “A quantitative high-throughput screen identifies compounds that lower expression of the SCA2-and ALS-associated gene ATXN2” (The Journal of Biological Chemistry, 2022)
# Like-named read-outs stand apart in the source and are kept apart here.
# Key:
# CMV-luc = test: Secondary assays: CMV-luc in SC cells, Bright-Glo; format: cell-based, human; conditions: minimum CMV-luc signal in SC cells over 12 doses; summary data
# Description: (§1) Compounds were plated at 2× concentrations in phenol red–free DMEM in 25 μl in 384-well plates with each compound dose plated in triplicate. An equal volume of S2, H2, or SC cells (24,000 cells/well) suspended in phenol red–free DMEM with 10% fetal bovine serum and 1× penicillin/streptomycin were added. Cells were grown 24 h and then assayed first by using the CellTiter-Fluor reagent (20 μl) followed by the addition of Bright-Glo (65 μl) luciferase assay, using a multimode plate reader (Beckman; DT880). Values were reported as the mean ± SD with n = 3. IC50s were determined by the Hill coefficient method using an online tool (https://www.aatbio.com/tools/ic50-calculator).
# S2, H2 or SC cells = test: Secondary assays: multiplexed cell viability (CellTiter-Fluor)
# Description: (§2) The values for H2 and S2 were used as replicates to calculate IC50s and to assess cell viability.
# as §1
# ATXN2-luc = test: Secondary assays: ATXN2-luc in S2 and H2 cells, 12 doses, Bright-Glo; format: cell-based, human; conditions: summary data; for IC50: ATXN2-luc luciferase assays in H2 and S2 cells, 12 doses plus a zero dose, read-out: Mean IC50; for min ATXN2-luc (%): minimum ATXN2-luc signal over 12 doses, H2 and S2 cells
# in vitro = conditions: human
# Description: as §2, §1
# [1] = minimum viability, multiplexed CellTiter-Fluor, over 12 doses, summary data
Compound,min SC luc (%) (CMV-luc),"min viability (%) (S2, H2 or SC cells; [1])",IC50 (ATXN2-luc) [nM],min ATXN2-luc (%) (ATXN2-luc),viability at 24 h (in vitro) [%],IC50 (ATXN2-luc; Homo sapiens) [nM],"min viability (%) (S2, H2 or SC cells)"
"C[C@@H]1CCC/C=C\[C@H]2C[C@H](O)C[C@@H]2[C@H](O)/C=C\C(=O)O1 [NCGC00017254-02, (+)-Brefeldin A]",84.381,72.9816,2890,44.7226,–,–,–
"O=c1[nH]c(=O)n([C@H]2C[C@H](O)[C@@H](CO)O2)cc1F [NCGC00023722-07, Floxuridine]",37.5061,–,–,25.6595,97.9,166,–
"N[C@@H](Cc1ccc(N(CCCl)CCCl)cc1)C(=O)O [NCGC00090757-05, Melphalan]",79.9664,–,–,44.8372,89.3,–,–
CCC(=C/[C@H](C)C/C=C/C(C)=C/[C@@H](C)C(=O)[C@@H](C)[C@H](O)[C@@H](C)C/C(C)=C/C(=O)O)/C=C/[C@@H]1OC(=O)C=C[C@@H]1C [NCGC00162440-02],90.0621,65.4242,48,28.333,–,–,–
"C=CCNC1=C2C[C@@H](C)C[C@H](OC)[C@H](O)[C@@H](C)/C=C(\C)[C@H](OC(N)=O)[C@@H](OC)/C=C\C=C(/C)C(=O)NC(=CC1=O)C2=O [NCGC00163424-03, tanespimycin]",96.2287,–,–,23.7455,83.6,442,–
Cc1ccc2nc(NCCN)c3ncc(C)n3c2c1 [NCGC00165761-02],96.0167,–,4050,20.5589,–,–,77.5673
"COc1cc2ncn(-c3cc(OCc4ccccc4C(F)(F)F)c(C(N)=O)s3)c2cc1OC [NCGC00242217-04, GW843682X]",87.9923,–,–,57.1311,75.5,9770,–
"NC(=O)Nc1cc(-c2cccc(F)c2)sc1C(=O)N[C@H]1CCCNC1 [NCGC00242481-02, AZD7762]",–,–,–,–,78.1,–,–
"CN(c1ncccc1CNc1nc(Nc2ccc3c(c2)CC(=O)N3)ncc1C(F)(F)F)S(C)(=O)=O [NCGC00242495-01, PF-00562271]",98.3015,64.5946,2320,15.5052,–,–,–
COc1c(C)cnc(Cn2cnc3c(Cl)nc(N)nc32)c1C [NCGC00247877-01],68.1668,–,329,17.8512,–,–,91.8481
CCNC(=O)c1noc(-c2cc(C(C)C)c(O)cc2O)c1-c1ccc(CN2CCOCC2)cc1 [NCGC00247878-01],63.2542,94.6315,44,17.8831,–,–,–
"CCNC(=O)c1cc2c(-c3cc(OCCN4CCCC4)c(Cl)cc3Cl)nc(N)nc2s1 [NCGC00247879-01, NVP-BEP800]",85.4541,–,1790,22.6428,–,–,89.936
Cc1cccc(Nc2nc(N[C@@H]3CCCC[C@H]3N)ncc2C(N)=O)c1 [NCGC00253909-01],86.8204,–,25400,64.2535,–,–,94.6197
"O=C(NC1CCNCC1)c1[nH]ncc1NC(=O)c1c(Cl)cccc1Cl [NCGC00263091-01, AT7519]",103.668,–,–,14.5407,50.3,162,–
Cc1ccc(-c2ncn(-c3ccc(Nc4nccc(-c5cccc(N6CCOCC6)c5)n4)cc3)n2)cn1 [NCGC00263146-01],82.9006,–,1300,15.6493,–,–,65.3662
"S=C(NCc1ccc2c(c1)OCO2)N1CCN(c2ncnc3c2oc2ccccc23)CC1 [NCGC00263158-01, MP470]",74.2577,–,–,55.0637,87.7,3020,–

Compound,min SC luc (%) (CMV-luc),"min viability (%) (S2, H2 or SC cells; [1])",IC50 (ATXN2-luc) [nM],min ATXN2-luc (%) (ATXN2-luc),viability at 24 h (in vitro) [%],IC50 (ATXN2-luc; Homo sapiens) [nM],"min viability (%) (S2, H2 or SC cells)"
"CNC(=O)c1cc(Oc2ccc(NC(=O)Nc3cc(C(C)(C)C)nn3-c3ccc4ncccc4c3)c(F)c2)ccn1 [NCGC00263172-01, DCC-2036]",60.5803,–,–,27.0713,56.6,3730,–
O=C(O)c1ccc2c(c1)nc(Nc1cccc(Cl)c1)c1ccncc12 [NCGC00263192-02],93.7801,–,10200,45.6416,–,–,77.6315
C[C@@]12OC(=O)[C@]1([C@@H](O)[C@@H]1C=CCCC1)NC(=O)[C@H]2CCCl [NCGC00344630-01],96.8804,75.9573,1110,16.5036,–,–,–
CN[C@@H]1CN(c2ccc3c(=O)c(C(=O)O)cn(-c4nccs4)c3n2)C[C@@H]1OC [NCGC00346437-01],64.0102,71.6056,488,15.1045,–,–,–
C=CCNc1c(O)cc2c(O)c1C[C@@H](C)C[C@H](OC)[C@@H](O)[C@@H](C)C=C(C)[C@H](OC(N)=O)[C@@H](OC)C=CC=C(C)C(=O)N2 [NCGC00346438-01],94.9947,–,546,24.2069,–,–,91.4914
C[C@@H](Oc1ccc2[nH]nc(C=Cc3cnn(CCO)c3)c2c1)c1c(Cl)cncc1Cl [NCGC00346459-01],64.272,66.1226,1390,15.2562,–,–,–
"Nc1ncnc2c1c(-c1cnc3[nH]ccc3c1)nn2C1CCCC1 [NCGC00346619-01, PP121]",78.0969,50.3878,4160,27.4759,–,–,–
"O=c1[nH]c2ccc(Cl)cc2c(N[C@@H]2CN3CCC2CC3)c1-c1nc2ccccc2[nH]1 [NCGC00346626-01, CHIR-124]",69.3978,75.0552,219,17.9767,–,–,–
"CC1(C)CC(=O)c2c(C(F)(F)F)nn(-c3ccc(C(N)=O)c(N[C@H]4CC[C@H](O)CC4)c3)c2C1 [NCGC00346633-01, SNX 2112]",82.2819,–,–,–,83.3,–,–
"CC1(C)CC(=O)c2c(C(F)(F)F)nn(-c3ccc(C(N)=O)c(NC4CCC(OC(=O)CN)CC4)c3)c2C1 (stereo not shown) [NCGC00346640-01, PF 04929113]",69.7843,–,88,19.9722,–,–,87.146
Cn1cc(-c2cnn3c(N)c(Br)c([C@H]4CCCNC4)nc23)cn1 [NCGC00346653-01],91.5137,87.0431,388,25.4941,–,–,–
CC(C)c1cc(-c2n[nH]c(=O)n2-c2ccc3c(ccn3C)c2)c(O)cc1O [NCGC00346678-01],55.4123,77.8152,30,17.7351,–,–,–
"CCc1c(O)cc(O)c(C(=O)c2ccc(OCCN3CCOCC3)c(OC)c2)c1CC(=O)N(CCOC)CCOC [NCGC00346685-01, KW-2478]",105.888,–,587,23.9372,–,–,97.6731
"O=C(Nc1cccc(Nc2ncc(Br)c(NCCc3cnc[nH]3)n2)c1)N1CCCC1 [NCGC00346687-01, BX-912]",100.351,–,8890,54.9395,–,–,84.397
Oc1ccc(-c2ccc(-c3cc(Nc4cccc(CNC5CC5)c4)n[nH]3)cc2)c(O)c1 [NCGC00346954-01],54.3112,–,545,20.2623,–,–,61.7259
